This note sets out measurements from patent US10934283B2, “COMT inhibiting methods and compositions” (LIEBER INSTITUTE FOR BRAIN DEVELOPMENT, priority 2015, dated 2021).

The assay addresses T1, catechol-O-methyltransferase (COMT) (Homo sapiens, UniProt P21964).
T1 construct: M51A variant) was expressed in HEK 293F cells
T1 sequence (P21964 52-271 limits assumed): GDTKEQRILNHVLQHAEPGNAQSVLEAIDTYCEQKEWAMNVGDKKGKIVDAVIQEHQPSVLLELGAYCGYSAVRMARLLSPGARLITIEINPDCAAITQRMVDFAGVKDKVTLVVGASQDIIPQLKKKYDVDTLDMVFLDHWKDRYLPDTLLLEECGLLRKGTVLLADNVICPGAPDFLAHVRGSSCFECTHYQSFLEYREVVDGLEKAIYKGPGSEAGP
In words: COMT inhibition assay (HTRF, production of SAH from SAM). The class given is biochemical. Conditions: table does not say MB-COMT or S-COMT. Put shortly: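 Membranes from HEK293F cells expressing MB-COMT (M51A variant) incubated with 20 μM SAM and 1.5 μM dopamine plus compound (10 concentrations) for 40 min at 37 °C; S-COMT (Val158) at 0.15 ng/well used 100 μM dopamine, 15 min. SAH measured by HTRF against a standard curve; pIC50 from 4-parameter logistic fit.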

Each structure is given as a SMILES string.

In the case of `O=c1cc2n(cc1O)CCN(CCn1nnc3ccccc31)C2` [Example 4, 2-[2-(benzotriazol-1-yl)ethyl]-7-hydroxy-3,4-dihydro-1H-pyrido[1,2-a]pyrazin-8-one], the “Activity range (pIC50)” value is listed as “+ (a single plus (+) is associated with a pIC50 of from about 4.5 to 6)”.

On to `CC(Cc1ccc2c(c1)OCO2)CN1CCn2cc(O)c(=O)cc2C1` (stereo not drawn) [Example 49, 2-[3-(1,3-benzodioxol-5-yl)-2-methylpropyl]-7-hydroxy-1,2,3,4-tetrahydro-8H-pyrido[1,2-a]pyrazin-8-one], for which the “Activity range (pIC50)” value is listed as “++ (two plus signs (++) is associated with a pIC50 of from about 6 to 7)”.

Take `O=c1cc2n(cc1O)CCN(Cc1cccc(OCc3ccccc3)c1)C2` [Example 53, 2-[3-(benzyloxy)benzyl]-7-hydroxy-1,2,3,4-tetrahydro-8H-pyrido[1,2-a]pyrazin-8-one]: the “Activity range (pIC50)” value is recorded as “+++ (three plus signs (+++) is associated with a pIC50 of above about 7)”.

Consider `O=c1cc2n(cc1O)CCN(Cc1csc(-c3ccccc3)n1)C2` [Example 102, 7-hydroxy-2-[(2-phenyl-1,3-thiazol-4-yl)methyl]-1,2,3,4-tetrahydro-8H-pyrido[1,2-a]pyrazin-8-one], for which the “Activity range (pIC50)” value was “++ (two plus signs (++) is associated with a pIC50 of from about 6 to 7)”.

`O=c1cc2n(cc1O)CCN(C1CCc3ccccc31)C2` (stereo not drawn) [Example 84, 2-(2,3-dihydro-1H-inden-1-yl)-7-hydroxy-1,2,3,4-tetrahydro-8H-pyrido[1,2-a]pyrazin-8-one]: the “Activity range (pIC50)” value was “++ (two plus signs (++) is associated with a pIC50 of from about 6 to 7)”.

On to `CCc1ccc(CN2CCn3cc(O)c(=O)cc3[C@H]2c2ccccc2)cc1` (single isomer, unassigned) [Example 118], for which the “Activity range (pIC50)” value is “+++ (three plus signs (+++) is associated with a pIC50 of above about 7)”.

For the molecule `O=c1cc2n(cc1O)CCN(C1CCCc3ccccc31)C2` (stereo not drawn) [Example 90, 7-hydroxy-2-(1,2,3,4-tetrahydronaphthalen-1-yl)-1,2,3,4-tetrahydro-8H-pyrido[1,2-a]pyrazin-8-one], the “Activity range (pIC50)” value was “+++ (three plus signs (+++) is associated with a pIC50 of above about 7)”.

For `COc1cccc(OC)c1C(C)N1CCn2cc(O)c(=O)cc2C1` (stereo not drawn) [Example 74, 2-[1-(2,6-dimethoxyphenyl)ethyl]-7-hydroxy-1,2,3,4-tetrahydro-8H-pyrido[1,2-a]pyrazin-8-one], the “Activity range (pIC50)” value is listed as “++ (two plus signs (++) is associated with a pIC50 of from about 6 to 7)”.

With `O=c1c(O)cn2c(c1Br)CN(Cc1ccccc1Cl)CC2` [Example 139, 9-bromo-2-[(2-chlorophenyl)methyl]-7-hydroxy-3,4-dihydro-1H-pyrido[1,2-a]pyrazin-8-one], the “Activity range (pIC50)” value is given as “+++ (three plus signs (+++) is associated with a pIC50 of above about 7)”.

Regarding `Cc1ccc(C)c(C(C)N2CCn3cc(O)c(=O)cc3C2)c1` (stereo not drawn) [Example 87, 2-[1-(2,5-dimethylphenyl)ethyl]-7-hydroxy-1,2,3,4-tetrahydro-8H-pyrido[1,2-a]pyrazin-8-one], the “Activity range (pIC50)” value is “+++ (three plus signs (+++) is associated with a pIC50 of above about 7)”.

Consider `CC(c1ccccc1F)N1CCn2cc(O)c(=O)cc2C1` (stereo not drawn) [Example 98, 2-[1-(2-fluorophenyl)ethyl]-7-hydroxy-1,2,3,4-tetrahydro-8H-pyrido[1,2-a]pyrazin-8-one], for which the “Activity range (pIC50)” value was “++ (two plus signs (++) is associated with a pIC50 of from about 6 to 7)”.

As for `O=c1cc2n(cc1O)CCN(c1cccc3ncccc13)C2` [Example 110, 7-hydroxy-2-(5-quinolyl)-3,4-dihydro-1H-pyrido[1,2-a]pyrazin-8-one], the “Activity range (pIC50)” value is “+ (a single plus (+) is associated with a pIC50 of from about 4.5 to 6)”.

Take `O=c1cc2n(cc1O)CCN(Cc1cc(Cl)cc3c1OCCC3c1c[nH]cn1)C2` (stereo not drawn) [Example 35, 2-{[6-chloro-4-(1H-imidazol-4-yl)-3,4-dihydro-2H-chromen-8-yl]methyl}-7-hydroxy-1,2,3,4-tetrahydro-8H-pyrido[1,2-a]pyrazin-8-one]: the “Activity range (pIC50)” value is listed as “++ (two plus signs (++) is associated with a pIC50 of from about 6 to 7)”.

As for `O=c1cc2n(cc1O)CCN(Cc1nc3ccccc3s1)C2` [Example 38, 2-(1,3-benzothiazol-2-ylmethyl)-7-hydroxy-1,2,3,4-tetrahydro-8H-pyrido[1,2-a]pyrazin-8-one], the “Activity range (pIC50)” value is “++ (two plus signs (++) is associated with a pIC50 of from about 6 to 7)”.

As to `CCc1ccc(CN2CCn3cc(O)c(=O)c(Cl)c3C2)cc1` [Example 136, 9-chloro-2-(4-ethylbenzyl)-7-hydroxy-1,2,3,4-tetrahydro-8H-pyrido[1,2-a]pyrazin-8-one], the “Activity range (pIC50)” value is recorded as “+++ (three plus signs (+++) is associated with a pIC50 of above about 7)”.

Regarding `Cc1cccc(N2CCn3cc(O)c(=O)cc3C2)c1` [Example 113, 7-hydroxy-2-(3-methylphenyl)-1,2,3,4-tetrahydro-8H-pyrido[1,2-a]pyrazin-8-one], the “Activity range (pIC50)” value was “++ (two plus signs (++) is associated with a pIC50 of from about 6 to 7)”.

With `O=c1cc2n(cc1O)CCN(Cc1n[nH]c3ccccc13)C2` [Example 42, 7-hydroxy-2-(1H-indazol-3-ylmethyl)-1,2,3,4-tetrahydro-8H-pyrido[1,2-a]pyrazin-8-one], the “Activity range (pIC50)” value is listed as “++ (two plus signs (++) is associated with a pIC50 of from about 6 to 7)”.

With `CCc1ccc(CN2CCn3cc(O)c(=O)cc3C2c2cccc(-c3cccnc3)c2)cc1` (stereo not drawn) [Example 126, 2-(4-ethylbenzyl)-7-hydroxy-1-[3-(pyridin-3-yl)phenyl]-1,2,3,4-tetrahydro-8H-pyrido[1,2-a]pyrazin-8-one], the “Activity range (pIC50)” value is given as “+++ (three plus signs (+++) is associated with a pIC50 of above about 7)”.

Regarding `CC(C)(C)c1ccc(CN2CCn3cc(O)c(=O)cc3C2)cc1` [Example 7, 2-(4-tert-butylbenzyl)-7-hydroxy-1,2,3,4-tetrahydro-8H-pyrido[1,2-a]pyrazin-8-one], the “Activity range (pIC50)” value is recorded as “+++ (three plus signs (+++) is associated with a pIC50 of above about 7)”.

On to `CC(C)c1ccc(CN2CCn3cc(O)c(=O)cc3C2)cc1` [Example 10, 7-hydroxy-2-[4-(propan-2-yl)benzyl]-1,2,3,4-tetrahydro-8H-pyrido[1,2-a]pyrazin-8-one], for which the “Activity range (pIC50)” value is “+++ (three plus signs (+++) is associated with a pIC50 of above about 7)”.

As to `N#Cc1ccccc1CN1CCn2cc(O)c(=O)cc2C1` [Example 17, 2-[(7-hydroxy-8-oxo-1,3,4,8-tetrahydro-2H-pyrido[1,2-a]pyrazin-2-yl)methyl]benzonitrile], the “Activity range (pIC50)” value is recorded as “++ (two plus signs (++) is associated with a pIC50 of from about 6 to 7)”.

Regarding `O=c1cc2n(cc1O)CCN(Cc1cc(-c3ccccc3)[nH]n1)C2` [Example 34, 7-hydroxy-2-[(5-phenyl-1H-pyrazol-3-yl)methyl]-1,2,3,4-tetrahydro-8H-pyrido[1,2-a]pyrazin-8-one], the “Activity range (pIC50)” value is “++ (two plus signs (++) is associated with a pIC50 of from about 6 to 7)”.

With `Cc1ccc(C)c(CN2CCn3cc(O)c(=O)cc3C2)c1` [Example 28, 2-(2,5-dimethylbenzyl)-7-hydroxy-1,2,3,4-tetrahydro-8H-pyrido[1,2-a]pyrazin-8-one], the “Activity range (pIC50)” value is “+++ (three plus signs (+++) is associated with a pIC50 of above about 7)”.

Turning to `Cc1cccc2c1CCC2N1CCn2cc(O)c(=O)cc2C1` (stereo not drawn) [Example 92, 7-hydroxy-2-(4-methyl-2,3-dihdyro-1H-inden-1-yl)-1,2,3,4-tetrahydro-8H-pyrido[1,2-a]pyrazin-8-one], the “Activity range (pIC50)” value is given as “+++ (three plus signs (+++) is associated with a pIC50 of above about 7)”.

Turning to `O=c1cc2n(cc1O)CCN(Cc1ccc(F)cc1Cl)C2` [Example 61], the “Activity range (pIC50)” value is listed as “+++ (three plus signs (+++) is associated with a pIC50 of above about 7)”.

Take `CC(c1cccc(Cl)c1)N1CCn2cc(O)c(=O)cc2C1` (stereo not drawn) [Example 72, 2-[1-(3-chlorophenyl)ethyl]-7-hydroxy-1,2,3,4-tetrahydro-8H-pyrido[1,2-a]pyrazin-8-one]: the “Activity range (pIC50)” value was “++ (two plus signs (++) is associated with a pIC50 of from about 6 to 7)”.

On to `COc1ccc(CN2CCn3cc(O)c(=O)cc3C2)cc1` [Example 50, 7-hydroxy-2-(4-methoxybenzyl)-1,2,3,4-tetrahydro-8H-pyrido[1,2-a]pyrazin-8-one], for which the “Activity range (pIC50)” value is recorded as “++ (two plus signs (++) is associated with a pIC50 of from about 6 to 7)”.

Turning to `O=c1cc2n(cc1O)CCN(Cc1c[nH]nc1-c1cccs1)C2` [Example 43, 7-hydroxy-2-{[3-(thiophen-2-yl)-1H-pyrazol-4-yl]methyl}-1,2,3,4-tetrahydro-8H-pyrido[1,2-a]pyrazin-8-one], the “Activity range (pIC50)” value is listed as “++ (two plus signs (++) is associated with a pIC50 of from about 6 to 7)”.

Consider `O=c1cc2n(cc1O)CCN(Cc1ccccc1OCc1ccccc1)C2` [Example 55, 2-[2-(benzyloxy)benzyl]-7-hydroxy-1,2,3,4-tetrahydro-8H-pyrido[1,2-a]pyrazin-8-one], for which the “Activity range (pIC50)” value was “++ (two plus signs (++) is associated with a pIC50 of from about 6 to 7)”.

On to `O=c1cc2n(cc1O)CCN(Cc1cccc3cccnc13)C2c1ccc(F)cc1` (stereo not drawn) [Example 123, 1-(4-fluorophenyl)-7-hydroxy-2-(quinolin-8-ylmethyl)-1,2,3,4-tetrahydro-8H-pyrido[1,2-a]pyrazin-8-one], for which the “Activity range (pIC50)” value is listed as “+++ (three plus signs (+++) is associated with a pIC50 of above about 7)”.
